Structures are written as SMILES.

The subject of data set [1] is Human Heme Oxygenase-1 (HMOX-1). The experiment in a line: ELISA assay to measure human heme oxygenase-1 (HMOX-1) in HepG2 lysate. The class given is cell-based. As to conditions: fold change of human HMOX1 protein levels relative to DMSO control, HepG2. Summed up:
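HO-1 protein quantified by chemiluminescent sandwich ELISA against a 2-fold standard series starting at 20 ng/ml. Samples were 1:20-diluted HepG2 lysates made in Triton X-100/EDTA buffer with protease inhibitors. Capture antibody coated at 8 μg/ml, detection antibody used at 200 ng/ml, room-temperature (20 °C) steps.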
A general note: An ELISA detects its analyte on a solid surface through an enzyme-linked reagent.

Data set [2] concerns FTH1. Put plainly: FTH1 mRNA expression in HepG2 cells (Nanostring). The format is cell-based, human. The settings on record: 24 hours treatment. On the procedure: RNA Isolation and Quantification of Gene Expression
HepG2 cells were seeded at 250 k/well in 12-well tissue culture plates coated with collagen (collagen I, rat tail (thin plate coating); ENZO Life Sciences) for approximately 24 hours. The seeded cells were then treated with dose titration of the compound of Example 17 or dimethyl fumarate (DMF) (a Nrf2 activator; Fisher Scientific) via media change, with biological triplicates performed for each treatment. After approximately 24 hours of treatment, cells were visually inspected to confirm that no toxicity occurred with compound treatment. The treated cells were washed with PBS, aspirated, parafilmed and frozen at −80° C. prior to RNA isolation. RNA was isolated using Machery-Nagel isolation kit (NucleoSpin® RNA: catalog 740955.250) and then quantitated using ThermoFisher Nanodrop.
RNA was diluted for Nanostring gene expression analysis. The diluted RNA at an input of 200ng RNA was run on a Nanostring instrument, which was supported with nCounter® SPRINT Profiler System and nSolver4.0 Software, nCounter® SPRINT Cartridge, nCounter® SPRINT Reagent Pack, and nCounter© SPRINT Hybridization Buffer. Analysis was done manually using raw data obtained from nSolver4.0 Software. CLTC, POLR2A, RPL27 and TBP were used as reference genes for normalization. Data was graphed as fold change compared to DMSO treatment. […]

Data set [3] concerns Primary human pulmonary artery endothelial cells (HPAEC). Put plainly: Glutathione (GSH) levels in primary human endothelial cells under hemin stress. The class given is cell-based. On the procedure: Example 149. Glutathione (GSH) Levels in Primary Human Endothelial Cells
Primary human pulmonary artery endothelial cells (HPAEC) (Lonza #CC-2530) cultured in endothelial cell growth medium-2 (EGM2 media, Lonza #CC-3162) were seeded in white 96-well plate (Corning® #3610) at 12.5 k cells per well and placed at 37° C. in 5% CO2. 18-24 hr post seeding, cells were treated with the compound of Example 17 via media change. 24 hr post treatment with the compound, cells were treated using a freshly prepared hemin stock (Sigma-Aldrich #51280 in 0.1N NaOH) alone or with the compound of Example 17. […] Media was aspirated off and GSH-Glo™ Glutathione Assay (Promega #V6911) was run following the manufacturer's protocol. White bottom plate seal (PerkinElmer #6005199) was used during read. Analysis was done using Softmax Pro.

Consider `Cn1c(Nc2nc3ccccc3o2)nc2cc(C(=O)NCCOCCO)ccc21` [Example 17, 2-(benzo[d]oxazol-2-ylamino)-N-(2-(2-hydroxyethoxy)ethyl)-1-methyl-1H-benzo[d]imidazole-5-carboxamide], for which, in data set [1], the “Maximum Fold induction” value is 11-40. Besides, the “FTH1 expression fold increase” value in data set [2] is given as “comparable fold increases”. Also, in data set [3] (24 hr pre-incubation, 30 min hemin stress), the “GSH levels / protection from hemin mediated oxidative stress” value was “protects these cells from hemin mediated oxidative stress”. Besides, the “toxicity, visual inspection of cells” value in data set [3] (after 30 min of hemin stress) was “no toxicity being noted”.

The record behind these values is patent publication US20240051952A1, “HMOX1 INDUCERS” (Mitobridge Inc., priority 2019, published 2024).
